Data reported in US5008247A, “Polysulfuric acid esters of bis-aldonamides and their derivatives, process for their preparation and medicaments” (Luitpold-Werk Chemisch-pharmazeutische Fabrik GmbH & Co., priority 1987, dated 1991).
Where two headings read alike, the source gives them in different places.

Columns and labels:
[1] = system: radical formation by leucocytes; test: Test on anti-inflammatory action: inhibition of luminol-potentiated chemiluminescence in whole blood; type: cell-based, rabbit; conditions: Oryctolagus cuniculus, Leucocyte, 1.5 h, read-out: IC50 (50% inhibition of luminol-potentiated chemiluminescence)
[2] = system: blood clotting (activated clotting system); test: Clotting test, activated partial thromboplastin time (aPTT); type: biochemical; conditions: prolongation of 150% of the blank value as reference point; converted by heparin calibration curve
Method: The inhibition of blood clotting can be measured in a simple manner by means of the activated partial thromboplastin time aPTT. It gives information about the general inhibition of the activated clotting system. In order to decrease the incidence of hemorrhages, as low as possible an inhibition of blood clotting is desired.
Clotting test, aPTT 0.1 ml of plasma and 0.1 ml of Pathromtin^R (Behringwerke, Marburg) are incubated at 37° C. for 2 minutes and 0.1 ml of 25 mM CaCl2 solution is added. The clotting time is measured in a Schnitger & Gross coagulometer. The agent is made up for 5 individual determinations per concentration.
The prlongation of the clotting time is converted into heparin units by means of a calibration curve.

bleeding time = test: Influence on the bleeding time (rat tail); type: in vivo; conditions: rats, 5 minutes before bleeding, compared to control
Method: A piece of tail about 2 mm long was cut from rats. The time until bleeding had stopped was measured. The test substance in various concentrations or physiological saline solution (control) was administered to the animals 5 minutes before causing the bleeding. Groups of 20 animals were treated. The proiongalion of the bleeding time compared to the control was expressed in percent.

[3] = system: blood clotting (activated clotting system); conditions: standard heparin from the firm Pharmindustrie; cited from earlier work
[4] = system: fibrinolysis (plasminogen-containing fibrin plates, human standard plasma); test: Fibrinolysis test (lysis haloes on plasminogen-containing fibrin plates); type: biochemical; conditions: area of lysis haloes less lysis area without substance, 24 hours at 37° C.
Description: The formation of a clinically manifest (relatively large) thrombus can be prevented in various ways. For one, the factors which are involved in the formation of the primary thrombus, such as blood platelet aggregation or the blood clotting system, can be eliminated. On the other hand, the dissolution of the primary thrombus can be accelerated by potentiating endogeneous fibrinolysis. A potentiation of endogeneous fibrinolysis can also serve to dissolve already clinically manifest thrombi again. The fibrinolytic action of a substance is thus of great significance in the prophylaxis and therapy of thrombosis. The fibrinolytic action of the substances according to the invention was determined in the test below.
Fibrinolysis was determined by means of plasminogen-containing fibrin plates.
Petri dishes, dia. 9 cm, were prewarmed to 40° C. 3 ml of a 2% solution of fibrinogen (Behringwerke, Marburg) in water, 1 ml of a plasminogen solution, 2 CTA/ ml (Behringwerke, Marburg), 3 ml of a 1% agarose solution (Serva, Heidelberg) in 50 mM TRIS/HCl, pH 7.8 and 1 ml of a solution of 15 U/ml of thrombin (Behringwerke, Marburg) in water were pipetted into the dishes with swirling. After cooling the plates, wells of 5 mm diameter were punched out.
0.1 ml of plasma (human standard plasma, Behringwerke, Marburg), 0.8 ml of water and 0.1 ml of solution of the test substance in various concentrations were incubated for 10 minutes at 37° C. […] The precipitate was taken up in 0.1 ml of buffer (20 mM TRIS/HCl, 100 mM NaCl, 2.7 mM EDTA, pH 7.8).
After 24 hours at 37° C., the lysis haloes were planimetered. The areas of the lysis haloes less the lysis areas without addition of substance serve as a measure for the fibrinolysis-increasing activity.

Molecule: COc1ccc2c(c1)c(CC(=O)O)c(C)n2C(=O)c1ccc(Cl)cc1 [Indomethacin, reference compound]
- IC50 ([1]; zymosan-stimulated citrated rabbit blood, maximum chemiluminescence over 90 minutes): 240 µg/mL

Molecule: O=C(NCCCCCCCCCCCCNC(=O)[C@H](OS(=O)(=O)O)[C@@H](OS(=O)(=O)O)[C@H](O[C@@H]1O[C@H](COS(=O)(=O)O)[C@H](OS(=O)(=O)O)[C@H](OS(=O)(=O)O)[C@H]1OS(=O)(=O)O)[C@@H](COS(=O)(=O)O)OS(=O)(=O)O)[C@H](OS(=O)(=O)O)[C@@H](OS(=O)(=O)O)[C@H](O[C@@H]1O[C@H](COS(=O)(=O)O)[C@H](OS(=O)(=O)O)[C@H](OS(=O)(=O)O)[C@H]1OS(=O)(=O)O)[C@@H](COS(=O)(=O)O)OS(=O)(=O)O.[Na].[Na].[Na].[Na].[Na].[Na].[Na].[Na].[Na].[Na].[Na].[Na].[Na].[Na].[Na].[Na] [Example 25, Hexadecasodium N,N'-1,12-dodecanediylbis-[2,3,5,6-tetra-O-sulfo-4-O-(2,3,4,6-tetra-O-sulfo-β-D-galactopyranosyl)-D-gluconamide]]
- IC50 [1]: 155 µg/mL
- heparin units (inhibition of blood clotting, aPTT) [2]: 5.85 u/mg

Molecule: Heparin [reference compound]
- Lengthening of the bleeding time (bleeding time; Dose 0.25 mg/kg): 55.4%
- Lengthening of the bleeding time (bleeding time; Dose 0.5 mg/kg): 120%
- heparin units (inhibition of blood clotting, aPTT) [2]: 175 u/mg
- heparin activity of the standard [3]: 175 U/mg
- Fibrinolysis at 2 μg/ml [4]: 14.8 mm^2

Molecule: O=C(NCCCOCCCCOCCCNC(=O)[C@H](OS(=O)(=O)O)[C@@H](OS(=O)(=O)O)[C@H](O[C@@H]1O[C@H](COS(=O)(=O)O)[C@H](OS(=O)(=O)O)[C@H](OS(=O)(=O)O)[C@H]1OS(=O)(=O)O)[C@@H](COS(=O)(=O)O)OS(=O)(=O)O)[C@H](OS(=O)(=O)O)[C@@H](OS(=O)(=O)O)[C@H](O[C@@H]1O[C@H](COS(=O)(=O)O)[C@H](OS(=O)(=O)O)[C@H](OS(=O)(=O)O)[C@H]1OS(=O)(=O)O)[C@@H](COS(=O)(=O)O)OS(=O)(=O)O [Example 34, Hexadecasodium N,N'-1,12-(4,9-dioxadodecanediylbis)[2,3,5,6-tetra-O-sulfo-4-O-(2,3,4,6-tetra-O-sulfo-β-D-galactopyranosyl)-D-gluconamide]]
- heparin units (inhibition of blood clotting, aPTT) [2]: 15.1 u/mg

Molecule: O=C(NCCCNC(=O)[C@H](OS(=O)(=O)O)[C@@H](OS(=O)(=O)O)[C@H](O[C@@H]1O[C@H](COS(=O)(=O)O)[C@H](OS(=O)(=O)O)[C@H](OS(=O)(=O)O)[C@H]1OS(=O)(=O)O)[C@@H](COS(=O)(=O)O)OS(=O)(=O)O)[C@H](OS(=O)(=O)O)[C@@H](OS(=O)(=O)O)[C@H](O[C@@H]1O[C@H](COS(=O)(=O)O)[C@H](OS(=O)(=O)O)[C@H](OS(=O)(=O)O)[C@H]1OS(=O)(=O)O)[C@@H](COS(=O)(=O)O)OS(=O)(=O)O.[Na].[Na].[Na].[Na].[Na].[Na].[Na].[Na].[Na].[Na].[Na].[Na].[Na].[Na].[Na].[Na] [Example 20, Hexadecasodium N,N'-1,3-propanediylbis-[2,3,5,6-tetra-O-sulfo-4-O-(2,3,4,6-tetra-O-sulfo-β-D-galactopyranosyl)-D-gluconamide]]
- Lengthening of the bleeding time (bleeding time; Dose 0.5 mg/kg): 5.1%
- Lengthening of the bleeding time (bleeding time; Dose 2 mg/kg): 35.1%
- IC50 [1]: 540 µg/mL
- heparin units (inhibition of blood clotting, aPTT) [2]: 42.1 u/mg
- Fibrinolysis at 2 μg/ml [4]: 19.2 mm^2

Molecule: O=C(NCCCCCCCCCNC(=O)[C@H](OS(=O)(=O)O)[C@@H](OS(=O)(=O)O)[C@H](O[C@@H]1O[C@H](COS(=O)(=O)O)[C@H](OS(=O)(=O)O)[C@H](OS(=O)(=O)O)[C@H]1OS(=O)(=O)O)[C@@H](COS(=O)(=O)O)OS(=O)(=O)O)[C@H](OS(=O)(=O)O)[C@@H](OS(=O)(=O)O)[C@H](O[C@@H]1O[C@H](COS(=O)(=O)O)[C@H](OS(=O)(=O)O)[C@H](OS(=O)(=O)O)[C@H]1OS(=O)(=O)O)[C@@H](COS(=O)(=O)O)OS(=O)(=O)O.[Na].[Na].[Na].[Na].[Na].[Na].[Na].[Na].[Na].[Na].[Na].[Na].[Na].[Na].[Na].[Na] [Example 24, Hexadecasodium N,N'-1,9-nonanediylbis-[2,3,5,6-tetra-O-sulfo-4-O-(2,3,4,6-tetra-O-sulfo-β-D-galactopyranosyl)-D-gluconamide]]
- IC50 [1]: 220 µg/mL
- heparin units (inhibition of blood clotting, aPTT) [2]: 14.1 u/mg
- Fibrinolysis at 2 μg/ml [4]: 17.8 mm^2

Molecule: O=C(NC1CCC(CC2CCC(NC(=O)[C@H](OS(=O)(=O)O)[C@@H](OS(=O)(=O)O)[C@H](O[C@@H]3O[C@H](COS(=O)(=O)O)[C@H](OS(=O)(=O)O)[C@H](OS(=O)(=O)O)[C@H]3OS(=O)(=O)O)[C@@H](COS(=O)(=O)O)OS(=O)(=O)O)CC2)CC1)[C@H](OS(=O)(=O)O)[C@@H](OS(=O)(=O)O)[C@H](O[C@@H]1O[C@H](COS(=O)(=O)O)[C@H](OS(=O)(=O)O)[C@H](OS(=O)(=O)O)[C@H]1OS(=O)(=O)O)[C@@H](COS(=O)(=O)O)OS(=O)(=O)O (stereo partly drawn) [Example 31, Hexadecasodium N,N'-4,4-dicylcohexylmethanediylbis-[2,3,5,6-tetra-O-sulfo-4-O-(2,3,4,6-tetra-O-sulfo-β-D-galactopyranosyl)-D-gluconamide]]
- heparin units (inhibition of blood clotting, aPTT) [2]: 10.2 u/mg

Molecule: O=C(NCCCCCCNC(=O)[C@H](OS(=O)(=O)O)[C@@H](OS(=O)(=O)O)[C@H](O[C@@H]1O[C@H](COS(=O)(=O)O)[C@H](OS(=O)(=O)O)[C@H](OS(=O)(=O)O)[C@H]1OS(=O)(=O)O)[C@@H](COS(=O)(=O)O)OS(=O)(=O)O)[C@H](OS(=O)(=O)O)[C@@H](OS(=O)(=O)O)[C@H](O[C@@H]1O[C@H](COS(=O)(=O)O)[C@H](OS(=O)(=O)O)[C@H](OS(=O)(=O)O)[C@H]1OS(=O)(=O)O)[C@@H](COS(=O)(=O)O)OS(=O)(=O)O.[Na].[Na].[Na].[Na].[Na].[Na].[Na].[Na].[Na].[Na].[Na].[Na].[Na].[Na].[Na].[Na] [Example 23, Hexadecasodium N,N'-1,6-hexanediylbis-[2,3,5,6-tetra-O-sulfo-4-O-(2,3,4,6-tetra-O-sulfo-β-D-galactopyranosyl)-D-gluconamide]]
- IC50 [1]: 225 µg/mL
- heparin units (inhibition of blood clotting, aPTT) [2]: 30.9 u/mg
- Fibrinolysis at 2 μg/ml [4]: 21.6 mm^2
